PMC5729429, “Gimatecan exerts potent antitumor activity against gastric cancer in vitro and in vivo via AKT and MAPK signaling pathways” (Journal of Translational Medicine, 2017)
Counter-ions that a name gives are not always drawn.

Tested on: SNU-1 cells
Experiment: Annexin V-PE/7-AAD apoptosis assay (flow cytometry), SNU-1
Assay type: cell-based, human
Settings: 24 h
Protocol: Apoptosis was measured by staining with phycoerythrin (PE)-annexin V and 7-amino-actinomycin (7-AAD) (BD Biosciences, Erembodegem, Belgium) for 15 min at room temperature in the dark, followed by flow cytometry (BD Biosciences) within 1 h. Apoptosis was analyzed with FlowJo 7.6 software (FlowJo, LLC, Ashland, Oregon).
Cells were treated with gimatecan (0–1 µM) and irinotecan (0–1 µM) for 24 h and stained with Annexin V-PE/7-AAD. Sums of percentages of early apoptosis (Q3) and late apoptosis (Q2) were calculated as the total apoptosis ratios. c, d Pro- and anti-apoptotic proteins including Bcl-2, Bak, PARP and cleaved PARP were assessed by western-blotting in SNU-1 and NCI-N87 cells. Western-blotting bands were quantified and normalized by ImageJ. […] They are left out because no substance is present, and they are also barely readable.

SMILES | proportion of apoptotic cells (SNU-1, 1000 nM) [%] | apoptosis induced compared with controls (0–1 µM, stated generally for the GC cell lines tested)
CC[C@@]1(O)C(=O)OCc2c1cc1n(c2=O)Cc2c-1nc1ccccc1c2/C=N/OC(C)(C)C [Gimatecan, 7-t-butoxyiminomethylcamptothecin] | 14.38 ± 2.11 | –
CCc1c2c(nc3ccc(OC(=O)N4CCC(N5CCCCC5)CC4)cc13)-c1cc3c(c(=O)n1C2)COC(=O)[C@]3(O)CC [Irinotecan, irinotecan hydrochloride] | – | not obvious
